Values quoted from earlier work in patent publication US6818776B2, “Alkali metal salt of thiazolidine-2,4-dione derivative” (Kyorin Pharmaceutical Co., Ltd., priority 2000, dated 2004).

Tests used:
[1] = reported in M. Nomura et al, Bioorg. Med. Chem. Lett., 1999, 9, 533
[2] = system: human peroxisome proliferator-activated receptor (PPAR); settings: reported in K. Murakami et al, Diabetes. 1998, 47, 1841

## COc1ccc(CC2SC(=O)NC2=O)cc1C(=O)NCc1ccc(C(F)(F)F)cc1 (centres unmarked) [KRP-297, 5-[(2,4-Dioxothiazolidin-5-yl)methyl]-2-methoxy-N-[[4-(trifluoromethyl)phenyl]methyl]benzamide]
[1]
  antihyperglycemic activity: excellent antihyperglycemic activity
[2]
  agonistic action against human PPAR: agonistic action
